Measured values from patent US20230174649A1, “PHARMACEUTICAL COMPOSITIONS CONTAINING ANTI-CD47 ANTIBODIES” (I-MAB BIOPHARMA US LIMITED, priority 2020, published 2023).
“And” between values parts separate entries of the source, which are not always exact repeats. Equal values may be shown once.

Experiments:
Type in all cases: cell-based, Human
CD47 = test: FACS analysis of expression level of CD47 on tumor cell surface; conditions: Toledo cells, 12 hours
Protocol: (§1) For FACS analysis, on the day of analysis (day 1), Toledo cells were seeded into 96 well plate and cultured at a density of 0.2×10^6 cells/well. Then the cells were treated with the selected small molecule therapeutic agents for 12 hours.
(§2) On day 2, cells were harvested, washed twice and then re-suspended in 100 uL FACS buffer subject to FACS analysis. For detection of the expression of calreticulin and CD47, cells were incubated with anti-calreticulin antibody and commercially available anti-CD47 antibody (BD Biosciences, Catalog number: 561249) in dark at 4° C. for 30 mins.
(§3) Then, the cells were subject to FACS analysis. Data was acquired and analyzed.

Calreticulin = test: FACS analysis of expression level of calreticulin on tumor cell surface; conditions: Toledo cells, 12 hours
Protocol: as §1, §2, §3

macrophages = test: Macrophage Viability Assay (CellTiter-Glo); conditions: for Macrophage viability (CellTiter-Glo Luminescent Cell Viability Assay): 16 hours, three replicate lines
Protocol: Then, the monocytes isolated by MACS were subsequently cultured in fresh complete medium supplemented with recombinant human granulocyte-macrophage colony-stimulating factor GM-CSF (50 ng/ml) and human recombinant IL-4 (35 ng/ml) to activate differentiated macrophages. After 6 days of culture (on day 7), cells were harvested, pooled together and counted for next use.
The cells from Example 2 were plated into a 96-well flat bottom plate at a density of 0.05×10^6 cells/well. After 2 hours of incubation, the macrophages were well attached to the plate. Then selected small molecule therapeutic agents were added to the well and cocultured for 16 hours. On day 8, macrophage viability was assessed by CellTiter-Glo® Luminescent Cell Viability Assay, according to the manufacture's instruction.

| SMILES | Mean Fluorescence Intensity (MFI) CD47 (CD47; 0.008 uM) | Mean Fluorescence Intensity (MFI) CD47 (CD47; 0.04 uM) | Mean Fluorescence Intensity (MFI) CD47 (CD47; 0.2 uM) | Mean Fluorescence Intensity (MFI) CD47 (CD47; 1 uM) | Mean Fluorescence Intensity (MFI) CD47 (CD47; 5 uM) | Mean Fluorescence Intensity (MFI) Calreticulin (Calreticulin; 0.008 uM) | Mean Fluorescence Intensity (MFI) Calreticulin (Calreticulin; 0.04 uM) | Mean Fluorescence Intensity (MFI) Calreticulin (Calreticulin; 0.2 uM) | Mean Fluorescence Intensity (MFI) Calreticulin (Calreticulin; 1 uM) | Mean Fluorescence Intensity (MFI) Calreticulin (Calreticulin; 5 uM) | Macrophage viability (CellTiter-Glo Luminescent Cell Viability Assay) (macrophages; Cpd 0.002 uM) | Macrophage viability (CellTiter-Glo Luminescent Cell Viability Assay) (macrophages; Cpd 0.008 uM) | Macrophage viability (CellTiter-Glo Luminescent Cell Viability Assay) (macrophages; Cpd 0.04 uM) | Macrophage viability (CellTiter-Glo Luminescent Cell Viability Assay) (macrophages; Cpd 0.2 uM) | Macrophage viability (CellTiter-Glo Luminescent Cell Viability Assay) (macrophages; Cpd 1 uM) | Macrophage viability (CellTiter-Glo Luminescent Cell Viability Assay) (macrophages; Cpd 5 uM) | Macrophage viability (CellTiter-Glo Luminescent Cell Viability Assay) (macrophages; Cpd 25 uM) | Macrophage viability (CellTiter-Glo Luminescent Cell Viability Assay) (macrophages; Cpd 50 uM) | toxicity to macrophages (macrophages; dose of 0.1-50 μM) | also measured |
| --- | --- | --- | --- | --- | --- | --- | --- | --- | --- | --- | --- | --- | --- | --- | --- | --- | --- | --- | --- | --- |
| C[C@H](Nc1ncnc2nc[nH]c12)c1cc2cccc(Cl)c2c(=O)n1-c1ccccc1 [Duvelisib] | 8368 | 8376 | 8471 | 8432 | 8482 | 71.4 | 71.2 | 71.4 | 75.7 | 75.9 | 5688 and 5876 and 6184 | 5484 and 5444 and 5664 | 5228 and 5348 and 5760 | 5028 and 4984 and 5264 | 4592 and 4776 and 4880 | 4464 and 4584 and 4404 | 4176 and 4276 and 4156 | 3972 and 3992 and 3860 | obvious toxicity | – |
| C=CC(=O)N1CCC[C@@H](n2nc(-c3ccc(Oc4ccccc4)cc3)c3c(N)ncnc32)C1 [Ibrutinib] | 8453 | 8490 | 8415 | 8345 | 8345 | 70.6 | 73.1 | 74.5 | 69.9 | 79 | 4948 and 4988 and 5520 | 4880 and 5316 and 5780 | 4688 and 5488 and 5780 | 4932 and 5736 and 6152 | 5056 and 5624 and 6224 | 4864 and 5828 and 6004 | 4680 and 5100 and 5572 | 3732 and 4296 and 4508 | – | toxicity to macrophages (macrophages; dose as high as 50 μM): showed toxicity; toxicity to macrophages (macrophages; dose lower than 10 μM): little toxic |
| CC[C@H](Nc1ncnc2[nH]cnc12)c1nc2cccc(F)c2c(=O)n1-c1ccccc1 [Idelalisib] | 8342 | 8538 | 8246 | 8465 | 8263 | 69.4 | 72.9 | 70.6 | 77.6 | 75.8 | 5888 and 5908 and 5980 | 6164 and 6056 and 5948 | 6144 and 6304 and 5916 | 6040 and 6048 and 6220 | 5376 and 5640 and 5744 | 5092 and 5220 and 5060 | 4508 and 4884 and 4908 | 4404 and 4648 and 4964 | obvious toxicity | – |
